# Experiments:
# hPARP1 [1] = target: T1, hPARP1 (Homo sapiens, UniProt P09874); test: […] auto-ADP-ribosylation (poly-Glu), SDS-PAGE autoradiography; type: biochemical; conditions: labelled compound (32P-NAD+); 50 µM NAD+, activated DNA, 2 mM MgCl2, pH 8, room temperature; no HPF1
# T1 construct: gene PARP1
# hPARP1 [2] = target: T2, hPARP1 (Homo sapiens, UniProt P09874, E988Q); test: […] auto-mono-ADP-ribosylation, SDS-PAGE autoradiography; type: biochemical; conditions: labelled compound (32P-NAD+); 50 µM NAD+, activated DNA, 2 mM MgCl2, pH 8, room temperature; no HPF1
# T2 construct: gene PARP1
# T2 sequence (P09874 2-1014 E988Q): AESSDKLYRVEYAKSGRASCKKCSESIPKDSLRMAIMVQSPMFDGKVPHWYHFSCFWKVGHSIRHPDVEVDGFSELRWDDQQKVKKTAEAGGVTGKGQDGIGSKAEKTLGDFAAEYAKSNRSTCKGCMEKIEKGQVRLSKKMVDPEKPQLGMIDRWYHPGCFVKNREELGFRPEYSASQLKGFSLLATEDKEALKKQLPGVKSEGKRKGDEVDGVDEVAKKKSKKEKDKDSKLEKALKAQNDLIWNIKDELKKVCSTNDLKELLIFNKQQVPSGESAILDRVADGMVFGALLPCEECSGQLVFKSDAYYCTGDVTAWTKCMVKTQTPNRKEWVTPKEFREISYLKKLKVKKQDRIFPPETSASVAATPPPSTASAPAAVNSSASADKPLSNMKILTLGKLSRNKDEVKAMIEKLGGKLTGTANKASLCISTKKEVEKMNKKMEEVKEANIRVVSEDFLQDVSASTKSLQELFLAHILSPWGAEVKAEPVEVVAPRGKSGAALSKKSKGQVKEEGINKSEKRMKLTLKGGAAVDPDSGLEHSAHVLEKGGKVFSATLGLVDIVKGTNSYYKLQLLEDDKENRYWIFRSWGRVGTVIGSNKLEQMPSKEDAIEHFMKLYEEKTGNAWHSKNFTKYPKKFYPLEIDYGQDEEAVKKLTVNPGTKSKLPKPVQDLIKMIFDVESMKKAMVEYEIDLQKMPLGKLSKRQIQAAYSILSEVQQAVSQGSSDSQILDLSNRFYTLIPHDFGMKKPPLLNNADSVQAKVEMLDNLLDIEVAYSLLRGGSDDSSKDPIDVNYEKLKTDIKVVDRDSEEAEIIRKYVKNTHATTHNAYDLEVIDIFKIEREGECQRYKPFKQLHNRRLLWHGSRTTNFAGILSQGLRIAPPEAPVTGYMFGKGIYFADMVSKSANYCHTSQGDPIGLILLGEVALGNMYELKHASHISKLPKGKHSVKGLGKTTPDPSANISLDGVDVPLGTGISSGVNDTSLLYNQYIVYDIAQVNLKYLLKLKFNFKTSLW
# T1 sequence (P09874 2-1014): as the sequence (P09874 2-1014 E988Q) above, with Q987E counted along it
smiles,measurement,setting,value
NC(=O)c1ccc[n+]([C@@H]2O[C@H](COP(=O)(O)OP(=O)(O)OC[C@H]3O[C@@H](n4cnc5c(N)ncnc54)[C@H](O)[C@@H]3O)[C@@H](O)[C@H]2O)c1 [NAD^+],"32P auto-ADP-ribosylation (poly-Glu), SDS-PAGE autoradiography",hPARP1 [1],recombinant proteins or peptides were ADP-ribosylated by hPARP1 to produce Glu-ADPr
same,"32P auto-mono-ADP-ribosylation, SDS-PAGE autoradiography",hPARP1 [2],we generated the mono-ADPr variants using the hPARP1 E988Q mutant
